Data as given in ChEMBL document CHEMBL4507324 (2021).

Columns and labels:
Details in all cases: Compound concentration 100.0 nM
[1] = molecular target: Serine/threonine-protein kinase MARK1 (Homo sapiens) (UniProt Q9P0L2)
[2] = molecular target: Cyclin-dependent kinase 5 (Homo sapiens) (UniProt Q00535)
[3] = molecular target: Ephrin type-A receptor 2 (Homo sapiens) (UniProt P29317)
[4] = molecular target: Serine/threonine-protein kinase PAK 6 (Homo sapiens) (UniProt Q9NQU5)
[5] = molecular target: Wee1-like protein kinase (Homo sapiens) (UniProt P30291)
[6] = molecular target: Mitogen-activated protein kinase kinase kinase 3 (Homo sapiens) (UniProt Q99759)
[7] = molecular target: Cyclin-dependent kinase 19 (Homo sapiens) (UniProt Q9BWU1)
[8] = molecular target: Ribosomal protein S6 kinase alpha-4 (Homo sapiens) (UniProt O75676)
[9] = molecular target: ALK tyrosine kinase receptor (Homo sapiens) (UniProt Q9UM73)
[10] = molecular target: Dual specificity protein kinase TTK (Homo sapiens) (UniProt P33981)
[11] = molecular target: Serine/threonine-protein kinase Sgk1 (Homo sapiens) (UniProt O00141)
[12] = molecular target: Ephrin type-B receptor 4 (Homo sapiens) (UniProt P54760)
[13] = molecular target: Serine/threonine-protein kinase WNK4 (Homo sapiens) (UniProt Q96J92)
[14] = system: Tyrosine-protein kinase ABL1 (Homo sapiens), P00519 [F317L]
[15] = molecular target: Protein kinase C iota type (Homo sapiens) (UniProt P41743)
[16] = molecular target: Phosphatidylinositol 4-phosphate 3-kinase C2 domain-containing subunit beta (Homo sapiens) (UniProt O00750)
[17] = molecular target: 5'-AMP-activated protein kinase catalytic subunit alpha-2 (Homo sapiens) (UniProt P54646)
[18] = molecular target: Calcium/calmodulin-dependent protein kinase type IV (Homo sapiens) (UniProt Q16566)
[19] = molecular target: Aurora kinase C (Homo sapiens) (UniProt Q9UQB9)
[20] = molecular target: Serine/threonine-protein kinase ICK (Homo sapiens) (UniProt Q9UPZ9)
[21] = molecular target: Serine/threonine-protein kinase PAK 5 (Homo sapiens) (UniProt Q9P286)
[22] = molecular target: Vascular endothelial growth factor receptor 1 (Homo sapiens) (UniProt P17948)
[23] = molecular target: Macrophage-stimulating protein receptor (Homo sapiens) (UniProt Q04912)
[24] = system: Receptor-type tyrosine-protein kinase FLT3 (Homo sapiens), P36888 [R834Q]
[25] = molecular target: Cyclin-dependent kinase-like 5 (Homo sapiens) (UniProt O76039)
[26] = molecular target: Serine/threonine-protein kinase 10 (Homo sapiens) (UniProt O94804)
Chain of Serine/threonine-protein kinase 10 (Homo sapiens) (O94804 whole entry, looked up): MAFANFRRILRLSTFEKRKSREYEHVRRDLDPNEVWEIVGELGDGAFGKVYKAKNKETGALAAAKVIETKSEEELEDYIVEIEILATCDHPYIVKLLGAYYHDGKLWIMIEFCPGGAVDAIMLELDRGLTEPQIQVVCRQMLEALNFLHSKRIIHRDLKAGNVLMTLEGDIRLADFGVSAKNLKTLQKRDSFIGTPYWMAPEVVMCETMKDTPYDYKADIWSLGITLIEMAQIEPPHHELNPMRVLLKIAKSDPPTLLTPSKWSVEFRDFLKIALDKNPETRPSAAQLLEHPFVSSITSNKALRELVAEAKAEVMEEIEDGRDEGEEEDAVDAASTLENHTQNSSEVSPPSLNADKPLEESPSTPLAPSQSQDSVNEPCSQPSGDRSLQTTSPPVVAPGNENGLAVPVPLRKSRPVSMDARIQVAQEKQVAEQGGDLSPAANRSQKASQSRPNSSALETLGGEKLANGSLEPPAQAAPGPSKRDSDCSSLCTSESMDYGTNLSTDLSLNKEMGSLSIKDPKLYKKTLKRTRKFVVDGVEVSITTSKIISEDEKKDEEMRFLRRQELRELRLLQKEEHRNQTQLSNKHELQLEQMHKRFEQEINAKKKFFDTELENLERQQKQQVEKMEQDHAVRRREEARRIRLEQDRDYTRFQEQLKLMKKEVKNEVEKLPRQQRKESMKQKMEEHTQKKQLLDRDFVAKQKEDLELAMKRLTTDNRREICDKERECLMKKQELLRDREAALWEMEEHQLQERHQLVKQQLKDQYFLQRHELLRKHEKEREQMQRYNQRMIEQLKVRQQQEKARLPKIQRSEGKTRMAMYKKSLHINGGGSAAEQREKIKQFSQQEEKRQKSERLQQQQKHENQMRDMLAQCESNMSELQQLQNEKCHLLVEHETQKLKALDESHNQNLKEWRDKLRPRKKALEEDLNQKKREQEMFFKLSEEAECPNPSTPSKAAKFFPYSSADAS

[27] = molecular target: Mitogen-activated protein kinase kinase kinase 19 (Homo sapiens) (UniProt Q56UN5)
[28] = molecular target: Serine/threonine-protein kinase NLK (Homo sapiens) (UniProt Q9UBE8)
Chain of Serine/threonine-protein kinase NLK (Homo sapiens) (Q9UBE8 whole entry): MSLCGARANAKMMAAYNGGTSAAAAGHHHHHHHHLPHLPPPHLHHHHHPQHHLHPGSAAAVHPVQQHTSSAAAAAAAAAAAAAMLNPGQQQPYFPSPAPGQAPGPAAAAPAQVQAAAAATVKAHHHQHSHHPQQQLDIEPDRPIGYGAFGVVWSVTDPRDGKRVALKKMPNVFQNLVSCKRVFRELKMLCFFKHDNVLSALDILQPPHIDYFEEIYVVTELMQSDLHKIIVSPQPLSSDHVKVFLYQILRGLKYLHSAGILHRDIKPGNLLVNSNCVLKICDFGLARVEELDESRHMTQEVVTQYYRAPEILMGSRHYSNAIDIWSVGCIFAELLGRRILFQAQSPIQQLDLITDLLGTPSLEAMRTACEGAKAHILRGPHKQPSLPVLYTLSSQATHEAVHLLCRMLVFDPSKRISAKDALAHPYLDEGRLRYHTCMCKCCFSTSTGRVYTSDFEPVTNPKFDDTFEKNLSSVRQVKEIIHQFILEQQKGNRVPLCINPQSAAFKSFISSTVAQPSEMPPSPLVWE

[29] = molecular target: Tyrosine-protein kinase BTK (Homo sapiens) (UniProt Q06187)
[30] = molecular target: Serine/threonine-protein kinase PknB (Mycobacterium tuberculosis) (UniProt P9WI81)
Chain of Serine/threonine-protein kinase PknB (Mycobacterium tuberculosis) (P9WI81 whole entry): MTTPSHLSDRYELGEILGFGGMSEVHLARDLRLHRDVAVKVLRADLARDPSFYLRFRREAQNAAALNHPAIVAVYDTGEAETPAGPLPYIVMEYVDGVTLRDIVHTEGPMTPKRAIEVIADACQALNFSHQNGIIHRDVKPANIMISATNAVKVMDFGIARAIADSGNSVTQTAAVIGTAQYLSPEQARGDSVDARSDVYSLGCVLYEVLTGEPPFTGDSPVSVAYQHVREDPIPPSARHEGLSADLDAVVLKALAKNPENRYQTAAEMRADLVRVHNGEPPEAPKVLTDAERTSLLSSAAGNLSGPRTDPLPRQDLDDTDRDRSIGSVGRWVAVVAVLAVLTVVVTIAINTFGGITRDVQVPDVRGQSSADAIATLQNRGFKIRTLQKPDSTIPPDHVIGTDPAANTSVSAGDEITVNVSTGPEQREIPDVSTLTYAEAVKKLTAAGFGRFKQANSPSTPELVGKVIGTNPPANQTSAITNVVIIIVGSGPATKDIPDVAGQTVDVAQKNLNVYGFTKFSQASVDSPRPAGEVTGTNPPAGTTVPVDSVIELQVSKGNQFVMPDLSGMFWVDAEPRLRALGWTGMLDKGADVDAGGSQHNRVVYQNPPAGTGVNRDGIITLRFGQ

[31] = molecular target: Cyclin-dependent kinase 9 (Homo sapiens) (UniProt P50750)
[32] = molecular target: Mitogen-activated protein kinase kinase kinase 5 (Homo sapiens) (UniProt Q99683)
[33] = molecular target: Calcium-dependent protein kinase 1 (Plasmodium falciparum) (UniProt P62344)
[34] = molecular target: BMP-2-inducible protein kinase (Homo sapiens) (UniProt Q9NSY1)
[35] = molecular target: Wee1-like protein kinase 2 (Homo sapiens) (UniProt P0C1S8)
[36] = system: Epidermal growth factor receptor (Homo sapiens), P00533 [UNDEFINED MUTATION]
[37] = molecular target: Casein kinase I isoform delta (Homo sapiens) (UniProt P48730)
[38] = molecular target: Cyclin-dependent kinase 7 (Homo sapiens) (UniProt P50613)
[39] = system: Tyrosine-protein kinase ABL1 (Homo sapiens), P00519 [H396P]
[40] = molecular target: Dual specificity mitogen-activated protein kinase kinase 3 (Homo sapiens) (UniProt P46734)
[41] = molecular target: Serine/threonine-protein kinase haspin (Homo sapiens) (UniProt Q8TF76)
[42] = molecular target: Activated CDC42 kinase 1 (Homo sapiens) (UniProt Q07912)
Chain of Activated CDC42 kinase 1 (Homo sapiens) (Q07912 whole entry, looked up): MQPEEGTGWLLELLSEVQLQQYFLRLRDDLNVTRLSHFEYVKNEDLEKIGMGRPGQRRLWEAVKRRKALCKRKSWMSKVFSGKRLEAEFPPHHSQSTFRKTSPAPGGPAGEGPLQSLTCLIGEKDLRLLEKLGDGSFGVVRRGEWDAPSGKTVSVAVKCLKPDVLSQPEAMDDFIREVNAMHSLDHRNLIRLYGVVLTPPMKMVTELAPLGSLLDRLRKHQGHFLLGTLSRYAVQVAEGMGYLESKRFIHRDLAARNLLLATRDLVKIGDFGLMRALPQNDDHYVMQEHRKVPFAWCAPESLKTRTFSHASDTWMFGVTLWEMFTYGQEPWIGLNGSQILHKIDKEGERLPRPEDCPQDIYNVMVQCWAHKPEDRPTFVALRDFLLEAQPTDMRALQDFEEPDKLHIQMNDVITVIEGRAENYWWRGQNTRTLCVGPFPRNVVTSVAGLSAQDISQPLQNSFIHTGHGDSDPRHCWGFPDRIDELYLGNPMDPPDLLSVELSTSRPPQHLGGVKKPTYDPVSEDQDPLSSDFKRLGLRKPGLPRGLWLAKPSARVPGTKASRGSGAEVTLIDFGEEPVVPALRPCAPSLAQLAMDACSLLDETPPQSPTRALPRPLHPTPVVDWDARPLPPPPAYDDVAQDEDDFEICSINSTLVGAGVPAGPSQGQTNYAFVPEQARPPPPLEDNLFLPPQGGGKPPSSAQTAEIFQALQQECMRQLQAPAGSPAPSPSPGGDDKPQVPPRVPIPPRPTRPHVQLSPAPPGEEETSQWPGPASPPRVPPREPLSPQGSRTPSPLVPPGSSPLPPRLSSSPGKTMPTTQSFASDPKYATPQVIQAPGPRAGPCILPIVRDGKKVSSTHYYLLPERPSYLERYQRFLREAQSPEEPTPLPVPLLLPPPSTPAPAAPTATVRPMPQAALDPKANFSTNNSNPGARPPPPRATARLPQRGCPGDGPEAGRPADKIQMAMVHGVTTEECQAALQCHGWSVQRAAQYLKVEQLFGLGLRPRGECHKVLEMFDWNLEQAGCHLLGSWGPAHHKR

[43] = molecular target: Serine/threonine-protein kinase PLK1 (Homo sapiens) (UniProt P53350)
[44] = molecular target: Calcium/calmodulin-dependent protein kinase type II subunit beta (Homo sapiens) (UniProt Q13554)
[45] = molecular target: Serine/threonine-protein kinase RIO2 (Homo sapiens) (UniProt Q9BVS4)
[46] = molecular target: Myotonin-protein kinase (Homo sapiens) (UniProt Q09013)

Chain of Serine/threonine-protein kinase PAK 6 (Homo sapiens) (Q9NQU5 whole entry, looked up): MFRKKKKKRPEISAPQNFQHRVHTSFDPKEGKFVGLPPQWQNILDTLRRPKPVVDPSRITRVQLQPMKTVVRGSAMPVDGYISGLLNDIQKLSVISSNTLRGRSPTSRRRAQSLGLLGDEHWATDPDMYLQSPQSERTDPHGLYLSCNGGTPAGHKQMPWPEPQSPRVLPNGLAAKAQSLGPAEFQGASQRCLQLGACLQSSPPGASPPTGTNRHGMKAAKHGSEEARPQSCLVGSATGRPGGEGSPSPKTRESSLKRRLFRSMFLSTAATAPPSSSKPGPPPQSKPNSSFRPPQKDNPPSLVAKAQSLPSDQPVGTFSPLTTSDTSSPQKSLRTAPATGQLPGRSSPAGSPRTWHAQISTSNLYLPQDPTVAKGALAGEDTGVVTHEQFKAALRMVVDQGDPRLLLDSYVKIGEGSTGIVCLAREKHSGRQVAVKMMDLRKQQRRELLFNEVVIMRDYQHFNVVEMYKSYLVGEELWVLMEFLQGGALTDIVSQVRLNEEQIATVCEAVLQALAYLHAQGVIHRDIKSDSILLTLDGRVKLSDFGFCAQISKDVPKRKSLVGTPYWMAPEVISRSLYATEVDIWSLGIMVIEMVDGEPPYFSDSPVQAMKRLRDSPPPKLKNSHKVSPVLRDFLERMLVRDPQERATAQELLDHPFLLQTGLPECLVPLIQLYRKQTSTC
Chain of Ephrin type-A receptor 2 (Homo sapiens) (P29317 whole entry): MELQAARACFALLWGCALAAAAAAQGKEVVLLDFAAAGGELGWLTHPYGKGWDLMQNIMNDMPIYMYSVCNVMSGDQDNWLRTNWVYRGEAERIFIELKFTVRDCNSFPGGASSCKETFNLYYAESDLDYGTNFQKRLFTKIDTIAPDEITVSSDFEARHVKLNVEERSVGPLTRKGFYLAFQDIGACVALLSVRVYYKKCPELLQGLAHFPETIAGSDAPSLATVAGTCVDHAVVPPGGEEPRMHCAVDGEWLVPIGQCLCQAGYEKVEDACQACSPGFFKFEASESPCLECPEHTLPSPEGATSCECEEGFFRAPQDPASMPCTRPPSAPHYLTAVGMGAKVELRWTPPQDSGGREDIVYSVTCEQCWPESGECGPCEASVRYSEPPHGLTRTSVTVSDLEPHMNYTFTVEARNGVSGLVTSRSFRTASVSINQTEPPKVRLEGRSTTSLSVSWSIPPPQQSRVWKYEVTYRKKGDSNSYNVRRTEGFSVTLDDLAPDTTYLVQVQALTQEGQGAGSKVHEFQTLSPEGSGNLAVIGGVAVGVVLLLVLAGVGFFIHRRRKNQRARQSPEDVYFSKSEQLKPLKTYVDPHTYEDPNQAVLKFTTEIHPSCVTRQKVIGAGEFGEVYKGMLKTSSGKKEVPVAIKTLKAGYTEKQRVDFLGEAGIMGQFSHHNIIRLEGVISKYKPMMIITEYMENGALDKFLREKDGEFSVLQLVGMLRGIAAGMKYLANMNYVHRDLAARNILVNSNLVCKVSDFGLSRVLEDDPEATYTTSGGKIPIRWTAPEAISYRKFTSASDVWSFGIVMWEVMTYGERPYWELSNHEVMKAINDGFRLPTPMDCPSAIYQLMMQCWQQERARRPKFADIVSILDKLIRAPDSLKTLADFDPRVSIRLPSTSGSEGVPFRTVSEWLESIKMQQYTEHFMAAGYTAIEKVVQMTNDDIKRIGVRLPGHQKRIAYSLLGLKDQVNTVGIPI

CS(=O)(=O)N1CCCC(NC(=O)[C@H](CCC2CCCCC2)NC(=O)c2ccc(CNc3ncnc4c3nnn4-c3ccccc3)cc2)C1 (some centres not stated) [SR-301]
residual activity [1]: 74%
residual activity [2]: 94%
residual activity [3]: 100%
residual activity [4]: 100%
residual activity [5]: 72%
residual activity [6]: 100%
residual activity [7]: 90%
residual activity [8]: 86%
residual activity [9]: 100%
residual activity [10]: 91%
residual activity [11]: 100%
residual activity [12]: 96%
residual activity [13]: 100%
residual activity [14]: 100%
residual activity [15]: 100%
residual activity [16]: 95%
residual activity [17]: 100%
residual activity [18]: 98%
residual activity [19]: 78%
residual activity [20]: 100%
residual activity [21]: 100%
residual activity [22]: 86%
residual activity [23]: 97%
residual activity [24]: 94%
residual activity [25]: 100%
residual activity [26]: 100%
residual activity [27]: 92%
residual activity [28]: 100%
residual activity [29]: 100%
residual activity [30]: 90%
residual activity [31]: 87%
residual activity [32]: 100%
residual activity [33]: 100%
residual activity [34]: 84%
residual activity [35]: 100%
residual activity [36]: 100%
residual activity [37]: 96%
residual activity [38]: 100%
residual activity [39]: 100%
residual activity [40]: 85%
residual activity [41]: 100%
residual activity [42]: 91%
residual activity [43]: 80%
residual activity [44]: 100%
residual activity [45]: 99%
residual activity [46]: 100%

CS(=O)(=O)N1CCCC(NC(=O)[C@H](CCC2CCCCC2)NC(=O)c2ccc(CNC(=O)c3cnc4ccccn34)cc2)C1 (some centres not stated) [SR-302]
residual activity [1]: 100%
residual activity [2]: 100%
residual activity [3]: 100%
residual activity [4]: 100%
residual activity [5]: 100%
residual activity [6]: 100%
residual activity [7]: 100%
residual activity [8]: 97%
residual activity [9]: 100%
residual activity [10]: 91%
residual activity [11]: 100%
residual activity [12]: 97%
residual activity [13]: 80%
residual activity [14]: 32%
residual activity [15]: 94%
residual activity [16]: 100%
residual activity [17]: 79%
residual activity [18]: 94%
residual activity [19]: 98%
residual activity [20]: 100%
residual activity [21]: 97%
residual activity [22]: 100%
residual activity [23]: 100%
residual activity [24]: 100%
residual activity [25]: 100%
residual activity [26]: 100%
residual activity [27]: 71%
residual activity [28]: 100%
residual activity [29]: 100%
residual activity [30]: 100%
residual activity [31]: 100%
residual activity [32]: 100%
residual activity [33]: 78%
residual activity [34]: 92%
residual activity [35]: 97%
residual activity [36]: 66%
residual activity [37]: 84%
residual activity [38]: 100%
residual activity [39]: 100%
residual activity [40]: 100%
residual activity [41]: 74%
residual activity [42]: 70%
residual activity [43]: 100%
residual activity [44]: 100%
residual activity [45]: 100%
residual activity [46]: 98%
